The test system of experiment [1] is Botrytis cinerea. Briefly: Efficacy against Botrytis cinerea on paprika seedlings (protective spray). It counts as in vivo. To be noted: single active, Paprikasämlinge, 5 Tage, 22 bis 24°C. As for the experimental part:
Paprikasämlinge der Sorte "Neusiedler Ideal Elite" wurden, nachdem sich 4 bis 5 Blätter gut entwickelt hatten, mit wäßrigen Suspensionen, die 80 % Wirkstoff und 20 % Emulgiermittel in der Trockensubstanz enthielten, tropfnaß gespritzt. Nach dem Antrocknen des Spritzbelages wurden die Pflanzen mit einer Konidienaufschwemmung des Pilzes Botrytis cinerea besprüht und bei 22 bis 24°C in eine Kammer mit hoher Luftfeuchtigkeit gestellt. Nach 5 Tagen hatte sich die Krankheit auf den unbehandelten Kontrollpflanzen so stark entwickelt, daß die entstandenen Blattnekrosen den überwiegenden Teil der Blätter bedeckten.
(§1) Die visuell ermittelten Werte für den Prozentanteil befallener Blattfläche wurden in Wirkungsgrade als % der unbehandelten Kontrolle umgerechnet. Wirkungsgrad 0 ist gleicher Befall wie in der unbehandelten Kontrolle, Wirkungsgrad 100 ist 0 % Befall. Die zu erwartenden Wirkungsgrade für Wirkstoffkombinationen wurden nach der Colby-Formel ermittelt (S. R. Colby "Calculating synergistic and antagonistic responses of herbicide combinations", Weeds 15, Seiten 20 bis 22 (1967)) und mit den beobachteten Wirkungsgraden verglichen.

Experiment [2] has as its system Botrytis cinerea. The experiment can be described thus: Efficacy against Botrytis cinerea on slices of green paprika fruit. Type of experiment: in vivo. Particulars: single active, Paprikaschoten-Scheiben, 4 Tage, 18°C. As for the experimental part:
Scheiben von grünen Paprikaschoten wurden mit wäßriger Wirkstoffaufbereitung, die 80 % Wirkstoff und 20 % Emulgiermittel in der Trockensubstanz enthielt, tropfnaß besprüht. 2 Stunden nach dem Antrocknen des Spritzbelages wurden die Fruchtscheiben mit einer Sporensuspension von Botrytis cinerea, die 1,7 x 10^6 Sporen pro ml einer 2 %igen Biomalzlösung enthielt, inokuliert. Die inokulierten Fruchtscheiben wurden anschließend in feuchten Kammern bei 18°C für 4 Tage aufgestellt. Dann erfolgte visuell die Auswertung der Botrytis-Entwicklung auf den befallenen Fruchtscheiben.
as §1

Each structure is given as a SMILES string.

For `CC1(C(=O)Nc2ccc(O)c(Cl)c2Cl)CC2CCC1C2` (centres unmarked) [(B)], the Wirkungsgrad was 65 % der unbehandelten Kontrolle in the experiment on Botrytis cinerea [1] (25 ppm in der Spritzbrühe), 80 % der unbehandelten Kontrolle in the experiment with Botrytis cinerea [1] (100 ppm in der Spritzbrühe), 10 % der unbehandelten Kontrolle with Botrytis cinerea [2] (25 ppm in der Spritzbrühe) and 25 % der unbehandelten Kontrolle with Botrytis cinerea [2] (100 ppm in der Spritzbrühe).
Take `CC1(C(=O)Nc2ccc(O)c(Cl)c2Cl)CCCCC1` [(C)]: the Wirkungsgrad in the experiment on Botrytis cinerea [1] (25 ppm in der Spritzbrühe) is given as 35 % der unbehandelten Kontrolle; in the experiment on Botrytis cinerea [1] (100 ppm in der Spritzbrühe), 70 % der unbehandelten Kontrolle; in the experiment with Botrytis cinerea [2] (25 ppm in der Spritzbrühe) it was 30 % der unbehandelten Kontrolle; in the experiment with Botrytis cinerea [2] (100 ppm in der Spritzbrühe) it was 25 % der unbehandelten Kontrolle.
In the case of `CC(C)(CCl)C(=O)Nc1ccc(O)c(Cl)c1Cl` [(A)], the results for the Wirkungsgrad in the experiment on Botrytis cinerea [1] (25 ppm in der Spritzbrühe), in the experiment on Botrytis cinerea [1] (100 ppm in der Spritzbrühe) and with Botrytis cinerea [2] (100 ppm in der Spritzbrühe) were 40 % der unbehandelten Kontrolle, 84 % der unbehandelten Kontrolle and 20 % der unbehandelten Kontrolle, respectively.

The values are drawn from patent publication EP0863702B1, “FUNGICIDAL MIXTURE” (BASF AKTIENGESELLSCHAFT, priority 1995, dated 1997).
